From ChEMBL document CHEMBL1149985, “Novel synthesis of nucleoside 5-polyphosphates” (Bioorg Med Chem Lett, 1996)

test system: Dictyostelium discoideum; experiment: Compound was evaluated for nucleoside diphosphate kinase (NDP-kinase) activity

`Nc1ncnc2c1ncn2[C@@H]1O[C@H](COP(=O)(O)OP(=O)(O)OP(=O)(O)O)[C@@H](O)[C@H]1O` showed a Relative activity of 100%.

test system: Dictyostelium discoideum; experiment: Compound was evaluated for nucleoside diphosphate kinase (NDP-kinase) activity relative to Adenosine triphosphate (100); design: concentration or dose not given beside the values

Going from `O=P(O)(O)OP(=O)(O)OP(=O)(O)OC[C@H]1O[C@@H](n2cnc3cncnc32)[C@H](O)[C@@H]1O` to `O=P(O)(O)OP(=O)(O)OP(=O)(O)OC[C@H]1O[C@@H](n2cnc3c(Cl)ncnc32)[C@H](O)[C@@H]1O`, the Relative activity falls from 130% to 110%.

Compared with `Nc1ncnc2c1ccn2[C@@H]1O[C@H](COP(=O)(O)OP(=O)(O)OP(=O)(O)O)[C@@H](O)[C@H]1O`, `Nc1ncnc2c1nc(Cl)n2[C@@H]1O[C@H](COP(=O)(O)OP(=O)(O)OP(=O)(O)O)[C@@H](O)[C@H]1O` is lower in Relative activity: 155% for the first, 140% for the second.

Work on `O=P(O)(O)OP(=O)(O)OP(=O)(O)OC[C@H]1O[C@@H](n2cnc3cc(Cl)c(Cl)cc32)[C@H](O)[C@@H]1O` yielded a Relative activity of 145%.
